Results on three molecules are retold here after paper PMC4827351 (Chemical Science, 2015).

Broadly, the stoichiometry N is a count of units in the complex or per binding partner.

“Also recorded” adds a separate entry of the source.

In series [1] the test system is TPCK-treated trypsin (Worthington). Put plainly: 0.01 mg mL^–1 trypsin (1 : 100 trypsin : proHD6 (w/w)) in 100 mM Tris–HCl, 20 mM CaCl2, pH 8.0. The conditions noted are these: room temperature, up to 120 min.
Series [2] can be described thus: intestinal luminal aspirates obtained by endoscopy (ileal fluid). The settings on record: human.
Series [3] deals with the molecule itself. The series can be described thus: AUC; sedimentation equilibrium; proHD6 30, 60 and 120 μM in 10 mM sodium phosphate pH 7.4, 30 000, 36 000 and 42 000 rpm, 20 °C, global fit with SEDPHAT; monomer to dimer.

With AFTCHCRRSCYSTEYSYGTCTVMGINHRFCCL, the not cleaved result in series [1] is reported as “resistant to trypsin-catalyzed degradation”.

Take “EPLQAEDDPLQAKAYEADAQEQRGANDQDFAVSFAEDASSSLRALGSTRAFTCHCRRSCYSTEYSYGTCTVMGINHRFCCL”: the cleaved bond result in series [2] is reported as “Arg68-Ala69”. Also, in series [1], the cleaved bond result was “Arg68-Ala69, 1 min” and the fragment found entry was “EPLQAEDDPLQAK, 1 min; also recorded: GANDQDFAVSFAEDASSSLR, 1 min”.

B1: proHD6 (81-residue propeptide of human α-defensin 6) (natural protein, UniProt Q01524 20-100, looked up)
chain: EPLQAEDDPLQAKAYEADAQEQRGANDQDFAVSFAEDASSSLRALGSTRAFTCHCRRSCYSTEYSYGTCTVMGINHRFCCL
notes: N-terminus EPLQ; Oxidatively folded regioisomer with the three native disulfide bonds (Cys4-Cys31, Cys6-Cys20, Cys10-Cys30, numbers count on mature HD6); Ulp1 cleavage leaves the native 81-residue peptide; also called HD6 propeptide; native proHD6; source: E. coli BL21(DE3) as His6-SUMO-proHD6, purified (Ni-NTA), Ulp1 digestion, reduction, oxidative folding, preparative HPLC; not shown: His6, …
Regarding B1, the “stoichiometry N” value in series [3] was 2.
